Source: patent US20170145005A1, “KINASE INHIBITOR” (THE UNIVERSITY OF TOKYO, priority 2014, published 2017)

Tests used:
[1] = target: PIM-3 kinase (Homo sapiens, UniProt Q86V86); experiment: Measurement of PIM-3 kinase inhibitory activity (fluorescent substrate peptide, capillary electrophoresis); type: biochemical; details: 30 μM ATP, 2 hours at room temperature
Protocol: 1.5 μM of fluorescent substrate peptide (FAM-AKRRRLSSLRA-COOH), 30 μM of ATP, and 0.0833 ng/μL of PIM-3 kinase were incubated with a compound for 2 hours at room temperature, and the Pim-3 kinase activity was measured. The reaction was quantified by separating the substrate and phosphorylation reaction product by capillary electrophoresis (using a Perkin-Elmer EZ reader II) based on the difference in their charges. The results are shown below in Tables 1 and 2.

[2] = test system: L3.6pl; experiment: Growth inhibitory activity on human pancreatic cancer cell lines (Example 4, WST-8); type: cell-based; details: Example 4: 72 hours, 3000 cells/well
Protocol: (§1) Three thousand cells of human pancreatic cancer cell lines (L3.6pl, MiaPaca-2, PANC-1, PCI35, and PCI66) were seeded in a medium volume of 90 μL in each well of a 96-well microtiter plate. After 24 hours, 10 μL/well of medium containing the test compound was added. Culture was continued for 72 hours, and 10 μL/well of WST-8 (Dojindo Laboratories Cell Counting kit-8) was added. After culturing for 2 hours, the OD 450 nm absorbance was measured, and the cell growth inhibitory effect was calculated. The cell lines were cultured in a carbon dioxide incubator with a carbon dioxide concentration of 5%.

[3] = test system: MiaPaca-2; experiment: as above; type: cell-based; details: MIA PaCa-2, Example 4: 72 hours, 3000 cells/well
Protocol: as §1

[4] = test system: PANC-1; experiment: as above; type: cell-based; details: Example 4: 72 hours, 3000 cells/well
Protocol: as §1

[5] = test system: PCI35; experiment: as above; type: cell-based; details: Example 4: 72 hours, 3000 cells/well
Protocol: as §1

[6] = test system: PCI66; experiment: as above; type: cell-based; details: Example 4: 72 hours, 3000 cells/well
Protocol: as §1

[7] = test system: L3.6pl; experiment: Growth inhibitory activity on human pancreatic cancer cell lines (Example 2, WST-8); type: cell-based; details: cultured for 72 hours, 2000 cells/well
Protocol: (§2) Two thousand cells of human pancreatic cancer cells lines (L3.6pl, MiaPaca-2, PANC-1, PCI35, PCI66) were seeded in a medium volume of 100 μL in each well of a 96-well microtiter plate. The medium was removed after 18 hours, and 100 μL/well of medium containing the test compound was added. Culture was continued for 72 or 96 hours. The medium containing the test compound was removed, and 100 μL/well of medium containing 10% WST-8 (Dojindo Laboratories Cell Counting kit-8) was added. After culturing for one hour, the OD 450 nm absorbance was measured, and the cell growth inhibitory activity was calculated. Furthermore, RPMI-1640 medium (Sigma) was used as the medium with 10% fetal calf serum (Invitrogen), 50 U/mL penicillin G (Sigma), and 50 μg/mL streptomycin (Sigma) added. The cell lines were cultured at 37° C. in a carbon dioxide incubator with a carbon dioxide concentration of 5%.
(§3) Tables 3 and 4 show the results of compound evaluation when cultured for 96 hours.

[8] = test system: MiaPaca-2; experiment: as above; type: cell-based; details: cultured for 72 hours, 2000 cells/well
Protocol: as §2, §3

[9] = test system: PANC-1; experiment: as above; type: cell-based; details: cultured for 72 hours, 2000 cells/well
Protocol: as §2, §3

Structure (SMILES)	IC50 [1] [µM]	IC50 ([7]; Homo sapiens, L3.6pl, 72 h) [µM]	IC50 ([8]; Homo sapiens, MIA PaCa-2) [µM]	IC50 ([9]; Homo sapiens, PANC-1, 72 h) [µM]	other results
O=C1/C(=C/c2n[nH]c3ncccc23)Oc2c1ccc(F)c2CC1CCNCC1 [Compound 29, (Z)-2-[(1H-pyrazolo[3,4-b]pyridin-3-yl)methylene]-6-fluoro-7-(piperidin-4-ylmethyl)benzofuran-3(2H)-one]	0.0045	–	–	–	IC50 [2]: 3.8 µM; IC50 [3]: 3.5 µM; IC50 [4]: 3.3 µM; IC50 [5]: 6.8 µM; IC50 [6]: 3.9 µM
COc1ccc2c(c1CN1CCC[C@@H]1CN)O/C(=C\c1n[nH]c3ncccc13)C2=O [Compound 31, (R,Z)-2-[(1H-pyrazolo[3,4-b]pyridin-3-yl)methylene]-7-{[2-(aminomethyl)pyrrolidin-1-yl]methyl}-6-methoxybenzofuran-3(2H)-one]	0.00096	–	–	–	–
COc1ccc2c(c1CN1CCN[C@H](C)C1)O/C(=C\c1n[nH]c3ncccc13)C2=O [Compound 12, (R,Z)-2-[(1H-pyrazolo[3,4-b]pyridin-3-yl)methylene]-6-methoxy-7-[(3-methylpiperazin-1-yl)methyl]benzofuran-3(2H)-one]	0.0079	3.5	3.2	8.2	–
O=C1/C(=C/c2n[nH]c3ncccc23)Oc2c1ccc(Cl)c2CC1CCNCC1 [Compound 28, (Z)-2-[(1H-pyrazolo[3,4-b]pyridin-3-yl)methylene]-6-chloro-7-(piperidin-4-ylmethyl)benzofuran-3(2H)-one]	0.0013	–	–	–	–
COc1ccc2c(c1CN1CC3CCC(C1)N3)O/C(=C\c1n[nH]c3ncccc13)C2=O [Compound 25, (Z)-2-[(1H-pyrazolo[3,4-b]pyridin-3-yl)methylene]-7-[(3,8-diazabicyclo[3.2.1]octan-3-yl)methyl]-6-methoxybenzofuran-3(2H)-one]	0.00029	–	–	–	IC50 [2]: 2.9 µM; IC50 [3]: 1.8 µM; IC50 [4]: 9.7 µM; IC50 [5]: 2.8 µM; IC50 [6]: 3.6 µM
COc1ccc2c(c1CN1C[C@@H](C)N[C@@H](C)C1)O/C(=C\c1n[nH]c3ncccc13)C2=O [Compound 10, (Z)-2-[(1H-pyrazolo[3,4-b]pyridin-3-yl)methylene]-7-[(cis-3,5-dimethylpiperazin-1-yl)methyl]-6-methoxybenzofuran-3(2H)-one]	0.019	7.5	3	14	–
COc1ccc2c(c1CN1CCNC[C@@H]1C)O/C(=C\c1n[nH]c3ncccc13)C2=O [Compound 9, (S,Z)-2-[(1H-pyrazolo[3,4-b]pyridin-3-yl)methylene]-6-methoxy-7-[(2-methylpiperazin-1-yl)methyl]benzofuran-3(2H)-one]	0.0084	4	3	12	–
COc1ccc2c(c1C(C)CN1CCNCC1)O/C(=C\c1n[nH]c3ncccc13)C2=O (centres unmarked) [Compound 27, (Z)-2-[(1H-pyrazolo[3,4-b]pyridin-3-yl)methylene]-6-methoxy-7-[1-(piperazin-1-yl)propan-2-yl]benzofuran-3(2H)-one]	0.0064	–	–	–	–
COc1ccc2c(c1CN1CC[C@@H](N)C1)O/C(=C\c1n[nH]c3ncccc13)C2=O [Compound 15, (R,Z)-2-[(1H-pyrazolo[3,4-b]pyridin-3-yl)methylene]-7-[(3-aminopyrrolidin-1-yl)methyl]-6-methoxybenzofuran-3(2H)-one]	0.0016	–	–	–	–
COc1ccc2c(c1CN1CCNCC1)O/C(=C\c1n[nH]c3nc(C)ccc13)C2=O [Compound 7, (Z)-6-methoxy-2-[(6-methyl-1H-pyrazolo[3,4-b]pyridin-3-yl)methylene]-7-(piperazin-1-ylmethyl)benzofuran-3(2H)-one]	0.0028	–	–	–	–
CC(c1c(OCC2CC2)ccc2c1O/C(=C\c1n[nH]c3ncccc13)C2=O)N1CCNCC1 (centres unmarked) [Compound 23, (Z)-2-[(1H-pyrazolo[3,4-b]pyridin-3-yl)methylene]-6-(cyclopropylmethoxy)-7-[1-(piperazin-1-yl)ethyl]benzofuran-3(2H)-one]	0.00062	–	–	–	IC50 [2]: 9.8 µM; IC50 [3]: 3.8 µM; IC50 [4]: 8 µM; IC50 [5]: 5.3 µM; IC50 [6]: 4.2 µM
COc1ccc2c(c1CC1CCNCC1F)O/C(=C\c1n[nH]c3ncccc13)C2=O (centres unmarked) [Compound 19, (Z)-2-[(1H-pyrazolo[3,4-b]pyridin-3-yl)methylene]-7-[(3-fluoropiperidin-4-yl)methyl]-6-methoxybenzofuran-3(2H)-one]	0.0007	–	–	–	IC50 [7]: 0.3 µM; IC50 [8]: 0.22 µM; IC50 [9]: 0.33 µM
C=C(CN1CCNCC1)c1c(OC)ccc2c1O/C(=C\c1n[nH]c3ncccc13)C2=O [Compound 24, (Z)-2-[(1H-pyrazolo[3,4-b]pyridin-3-yl)methylene]-6-methoxy-7-[3-(piperazin-1-yl)prop-1-en-2-yl]benzofuran-3(2H)-one]	0.012	–	–	–	–
COc1ccc2c(c1CC1CCNCC1F)O/C(=C\c1n[nH]c3ncccc13)C2=O (centres unmarked) [Compound 18, (Z)-2-[(1H-pyrazolo[3,4-b]pyridin-3-yl)methylene]-7-[(3-fluoropiperidin-4-yl)methyl]-6-methoxybenzofuran-3(2H)-one]	0.00035	0.25	0.22	0.42	–
O=C1/C(=C/c2n[nH]c3ncccc23)Oc2c1ccc(OC(F)F)c2CC1CCNCC1 [Compound 17, (Z)-2-[(1H-pyrazolo[3,4-b]pyridin-3-yl)methylene]-6-(difluoromethoxy)-7-(piperidin-4-ylmethyl)benzofuran-3(2H)-one]	0.0022	–	–	–	IC50 [2]: 6.2 µM; IC50 [3]: 3.2 µM; IC50 [4]: 9.7 µM; IC50 [5]: 9.3 µM; IC50 [6]: 18 µM
COc1ccc2c(c1CN1CC[C@H](N)C1)O/C(=C\c1n[nH]c3ncccc13)C2=O [Compound 14, (S,Z)-2-[(1H-pyrazolo[3,4-b]pyridin-3-yl)methylene]-7-[(3-aminopyrrolidin-1-yl)methyl]-6-methoxybenzofuran-3(2H)-one]	0.001	–	–	–	–
CN[C@H]1CCN(Cc2c(OC)ccc3c2O/C(=C\c2n[nH]c4ncccc24)C3=O)C1 [Compound 26, (S,Z)-2-[(1H-pyrazolo[3,4-b]pyridin-3-yl)methylene]-6-methoxy-7-{[3-(methylamino)pyrrolidin-1-yl]methyl}benzofuran-3(2H)-one]	0.0011	–	–	–	–
COc1ccc2c(c1CN1CCN[C@@H](C)C1)O/C(=C\c1n[nH]c3ncccc13)C2=O [Compound 11, (S,Z)-2-[(1H-pyrazolo[3,4-b]pyridin-3-yl)methylene]-6-methoxy-7-[(3-methylpiperazin-1-yl)methyl]benzofuran-3(2H)-one]	0.0014	3.5	3.4	8.3	–
COc1ccc2c(c1CN1CCC[C@H](N)C1)O/C(=C\c1n[nH]c3ncccc13)C2=O [Compound 32, (S,Z)-2-[(1H-pyrazolo[3,4-b]pyridin-3-yl)methylene]-7-[(3-aminopiperidin-1-yl)methyl]-6-methoxybenzofuran-3(2H)-one]	0.00051	–	–	–	IC50 [2]: 3.3 µM; IC50 [3]: 2.9 µM; IC50 [4]: 8.1 µM; IC50 [5]: 5.3 µM; IC50 [6]: 4.2 µM
COc1ccc2c(c1CC1CCNCC1)O/C(=C\c1n[nH]c3nc(C)ccc13)C2=O [Compound 16, (Z)-6-methoxy-2-[(6-methyl-1H-pyrazolo[3,4-b]pyridin-3-yl)methylene]-7-(piperidin-4-ylmethyl)benzofuran-3(2H)-one]	0.0007	–	–	–	–
COc1ccc2c(c1CN1CCNC[C@H]1C)O/C(=C\c1n[nH]c3ncccc13)C2=O [Compound 8, (R,Z)-2-[(1H-pyrazolo[3,4-b]pyridin-3-yl)methylene]-6-methoxy-7-[(2-methylpiperazin-1-yl)methyl]benzofuran-3(2H)-one]	0.038	3.5	3.5	12	–
COc1ccc2c(c1CN1[C@H](C)CNC[C@@H]1C)O/C(=C\c1n[nH]c3ncccc13)C2=O [Compound 13, (Z)-2-[(1H-pyrazolo[3,4-b]pyridin-3-yl)methylene]-7-[(cis-2,6-dimethylpiperazin-1-yl)methyl]-6-methoxybenzofuran-3(2H)-one]	0.15	3.5	2.4	8.4	–
